Patent US20010044445A1, “AZOLE INHIBITORS OF CYTOKINE PRODUCTION” (priority 1999, published 2001)

Key:
[1] = system: Human peripheral blood mononuclear cells; assay: Human Concanavalin-A Proliferation Assay (Con HU Assay); format: cell-based; conditions: Homo sapiens, PBMC, concanavalin-A stimulated human PBMC; for inhibition at 10 µM: 72 h, concentration 10 μm (in parentheses in the cell), 3 days, read-out: % Inhibition of proliferation (at concentrations of 1,10, or 100 μm); for IC50: tritiated thymidine
In short: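 Histopaque-isolated human PBMC (50,000/well) were pre-incubated 15 min with compounds, then stimulated with concanavalin-A at 2.5 μg/ml final for 3 days at 37 °C, 5% CO2. Proliferation measured by 6 h pulse with 0.5 μCi/well [3H]thymidine and beta counting.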

IL-4 = assay: Measurement of IL-4 Levels in Human T Cells (IL-4 Assay); format: cell-based; conditions: HuT78; Human T cells (HUT 78), phorbol 12-myristate 13-acetate and anti-CD3, 32 hours, ELISA; read-out: IL-4 Inhibition IC50
Experimental: (§1) Measurement of IL-5 and IL-4 Levels in Human T Cells (IL-4 and IL-5 Assays) Human T cells (HUT 78) were cultured to 1×10^6/mL in RPMI 1640 medium containing 10% fetal calf serum, 100 U/mL penicillin and 100 μg/mL streptomycin. Cultures were then centrifuged, to pellet the cells, and cells resuspended in fresh medium to the same density. 0.2 mL samples of cells were incubated in 96-well plates with 8 μL of various concentrations of compound freshly diluted with the above medium from 100 mM solvent stocks (ethanol or DMSO). Immediately after addition of compound, cells were stimulated by addition of 2 ng/mL phorbol 12-myristate 13-acetate (1 μL of freshly prepared solution of stock (in DMSO) diluted with the above medium added to cells) and 750 μg/mL anti-CD3 (pre-coated at 4° C. overnight). Cell cultures were incubated at 37 OC for 32 hours, then cells pelleted by centrifugation and the supernatants harvested for ELISA. IL-4 and IL-5 ELISA's were performed according to standard procedures. Inhibition was calculated relative to cytokine levels produced from control stimulated cells not treated with compound.

IL-5 = assay: Measurement of IL-5 Levels in Human T Cells (IL-5 Assay); format: cell-based; conditions: HuT78; Human T cells (HUT 78), phorbol 12-myristate 13-acetate and anti-CD3, 32 hours, ELISA; read-out: IL-5 Inhibition IC50
Experimental: as §1

IL-2 = assay: CD3 and CD28 Activation of Peripheral Blood T Cells and Determination of Secreted IL-2 Levels (C28 HU Assay); format: cell-based, Human; conditions: PBMC stimulated with anti-CD3 and anti CD28 mAbs, 24 hour; for inhibition at 1 µM: concentration 1 μM (in c2); for inhibition at 1 µM / inhibition at 100 µM: read-out: % Inhibition of IL-2 secretion (At concentrations of 1, 10, or 100 μM); for IC50: IL-2 secretion; for inhibition at 100 µM: concentration 100 μM (in c2)
Experimental: Human peripheral blood mononuclear cells were cultured in RPMI 1640 medium supplemented with 10 μg/ml gentamicin, 50 μM 2-mercaptoethanol, 1X MEM non-essential amino acids (Sigma Chemical Co., St. Louis, Mo.), 100 U/ml sodium penicillin G, 100 μg/ml streptomycin sulfate, 2 mM L-glutamine, 1 mM sodium pyruvate (Life Technologies, Grand Island, N.Y.) and 10% fetal bovine serum (Hyclone, Logan, Utah) at 37° C. with 5% CO2.
Human peripheral blood mononuclear cells (PBMC) were isolated by Ficoll-Hypaque seperation. PBMCs were stimulated with a combination of immobilized anti-CD3 and soluble anti CD28 mAbs as described in Faltynek, et al. J. Enzyme Inhibition 1995, 9, 111-122, hereby incorporated by reference. Following a 24 hour incubation, cell supernatants were harvested and IL-2 levels were determined. 100 μl of 5 μg/ml monoclonal murine anti-human IL-2 antibody (Biosource International) in D-PBS was added to 96 well Maxisorb plates (Nunc) and incubated at 4° C. overnight. Plates were washed 4 times with D-PBS containing 0.05% Tween 20 (wash buffer) and blocked with D-PBS containing 1% BSA and 10 mM NaN3 (Diluent/Blocking buffer) for 1-3 hours at room temperature or overnight at 4° C. Plates were washed and recombinant human IL-2 diluted (at 10,000, 5,000, 2,500, 1,250, 625, 312.5, 156.25, 78, 39, 20 pg/ml) in diluent/blocking buffer containing a matched percentage of complete RPMI 1640 medium as the unknown samples. Tissue culture supernatant at various dilutions were added in triplicate at 100 μl/well. Plates were incubated for 2 hours at room temperature and washed 4 times with wash buffer. 100 pl of rabbit anti-human IL-2 (10 μg/ml, Genzyme) was added and incubated for 1 hour at room temperature. The incubation was followed by 4 washes and subsequent addition of 100 pl of 1:2000 dilution of alkaline phosphatase-conjugated goat anti-rabbit F(ab′)2 (Biosource International). After 1 hour the plates were washed 4 times and 100 μl of pNPP (Southern Biotech or Sigma) at 1 mg/ml in buffer was added. Color development was allowed to proceed at room temperature for 20 minutes before addition of 50 μl of 2 N NaOH. Absorbance at 405 nm was determined using a plate reader (Molecular Devices). IL-2 concentrations were calcualted using SoftMax (Molecular Devices) based on the IL-2 standard solutions.

SMILES | melting point | inhibition at 1 µM (IL-2; Homo sapiens) | further results
O=C(Nc1ccc(-n2nc(C(F)(F)F)cc2C(F)(F)F)cc1)C1=CCCCC1 [Example 6, N-[4-[3,5-bis(trifluoromethyl)-1H-pyrazol-1-yl]phenyl]-1-cyclohexene-1-carboxamide] | 146 to 148 °C |  | inhibition at 10 µM [1]: 100%; IC50 [1]: 98 nM; IC50 (IL-4): 8 nM; IC50 (IL-5): 50 nM
O=C(Nc1ccc(-n2nc(C(F)(F)F)cc2C(F)(F)F)cc1)c1ccc(Oc2cc(Cl)cc(Cl)c2)o1 [Example 8, N-[4-[3,5-bis(trifluoromethyl)-1H-pyrazol-1-yl]phenyl]-5-(3,5-dichlorophenoxy)-2-furancarboxamide] | 152 to 153 °C | 20% | 
O=C(Nc1ccc(-n2nc(C(F)(F)F)cc2C(F)(F)F)cc1)Nc1ccc(C(F)(F)F)cc1 [Example 33, N-[4-[3,5-bis(trifluoromethyl)-1H-pyrazol-1-yl]phenyl]-N′-[4-(trifluoromethyl)phenyl]urea] |  | 6% | 
O=C(Nc1ccccc1)Nc1ccc(-n2nc(C(F)(F)F)cc2C(F)(F)F)cc1 [Example 36, N-[4-[3,5-bis(trifluoromethyl)-1H-pyrazol-1-yl]phenyl]-N′-phenylurea] | 185 to 187 °C | 10% | 
Cc1c(Cl)cccc1NC(=O)Nc1ccc(-n2nc(C(F)(F)F)cc2C(F)(F)F)cc1 [Example 38, N-[4-[3,5-bis(trifluoromethyl)-1H-pyrazol-1-yl]phenyl]-N′-(3-chloro-2-methylphenyl)urea] | 193 to 196 °C | 16% | 
CCCCCCCNC(=O)Nc1ccc(-n2nc(C(F)(F)F)cc2C(F)(F)F)cc1 [Example 47, N-[4-[3,5-bis(trifluoromethyl)-1H-pyrazol-1-yl]phenyl]-N′-heptylurea] | 129 to 130 °C | 2% | 
O=C(Nc1ccc(-n2nc(C(F)(F)F)cc2C(F)(F)F)cc1)C12CC3CC(CC(C3)C1)C2 [Example 62] |  |  | IC50 (IL-2): 5040 nM
CC(C)(C)OC(=O)NCCCCCCC(=O)Nc1ccc(-n2nc(C(F)(F)F)cc2C(F)(F)F)cc1 [Example 64, 1,1-dimethylethyl [7-[[4-[3,5-bis(trifluoromethyl)-1H-pyrazol-1-yl]phenyl]amino]-7-oxoheptyl]carbamate] | 86 to 88 °C |  | IC50 (IL-2; Homo sapiens): 22300 nM; inhibition at 100 µM (IL-2; Homo sapiens): 86%
CCCCC(CC)C(=O)Nc1ccc(-n2nc(C(F)(F)F)cc2C(F)(F)F)cc1 (centres unmarked) [Example 72, N-[4-[3,5-bis(trifluoromethyl)-1H-pyrazol-1-yl]phenyl]-2-ethylhexanamide] | 127 to 128 °C | 11% | 
O=C(CCC1CCCC1)Nc1ccc(-n2nc(C(F)(F)F)cc2C(F)(F)F)cc1 [Example 99, N-[4-[3,5-bis(trifluoromethyl)-1H-pyrazol-1-yl]phenyl]cyclopentanepropanamide] | 130 to 132 °C | 9% | 
O=C(Nc1ccc(-n2nc(C(F)(F)F)cc2C(F)(F)F)cc1)c1ccco1 [Example 113, N-[4-[3,5-bis(trifluoromethyl)-1H-pyrazol-1-yl]phenyl]-2-furancarboxamide] | 179 to 182 °C | 19% | 
O=C(Nc1ccc(-n2nc(C(F)(F)F)cc2C(F)(F)F)cc1)c1cnnc2ccccc12 [Example 118, N-[4-[3,5-bis(trifluoromethyl)-1H-pyrazol-1-yl]phenyl]-4-cinnolinecarboxamide] |  | 27% | 
O=C(Nc1ccc(-n2nc(C(F)(F)F)cc2C(F)(F)F)cc1)c1cccs1 [Example 131, N-[4-[3,5-bis(trifluoromethyl)-1H-pyrazol-1-yl]phenyl]-2-thiophenecarboxamide] | > 230 °C | 32% | 
O=C(CCC(=O)c1ccc(F)cc1)Nc1ccc(-n2nc(C(F)(F)F)cc2C(F)(F)F)cc1 [Example 152, N-[4-[3,5-bis(trifluoromethyl)-1H-pyrazol-1-yl]phenyl]-4-fluoro-γ-oxobenzenebutanamide] | 156 to 158 °C | 3% | 
CC(C)(Oc1ccc(Cl)cc1)C(=O)Nc1ccc(-n2nc(C(F)(F)F)cc2C(F)(F)F)cc1 [Example 155, N-[4-[3,5-bis(trifluoromethyl)-1H-pyrazol-1-yl]phenyl]-2-(4-chlorophenoxy)-2-methylpropanamide] |  | 8% | 
O=C(Nc1ccc(-n2nc(C(F)(F)F)cc2C(F)(F)F)cc1)c1ccncc1F [Example 264, N-[4-[3,5-bis(trifluoromethyl)-1H-pyrazol-1-yl]phenyl]-3-fluoro-4-pyridinecarboxamide] |  |  | inhibition at 10 µM [1]: 100%; IC50 [1]: 42 nM; IC50 (IL-4): 4.8 nM; IC50 (IL-5): 22 nM
C=CC[C@@H]1/C=C(\C)C[C@H](C)C[C@H](OC)[C@H]2O[C@@](O)(C(=O)C(=O)N3CCCC[C@H]3C(=O)O[C@H](/C(C)=C/[C@@H]3CC[C@@H](O)[C@H](OC)C3)[C@H](C)[C@@H](O)CC1=O)[C@H](C)C[C@@H]2OC [FK-506, tacrolimus, reference compound] |  |  | IC50 (IL-4): 0.7 nM; IC50 (IL-5): 0.5 nM

Now from value to molecule, other results behind:

melting point | SMILES | inhibition at 1 µM (IL-2; Homo sapiens) | further results
199 to 201 °C | O=C(Nc1ccc(-n2nc(C(F)(F)F)cc2C(F)(F)F)cc1)C1CCc2ccccc2C1 (centres unmarked) [Example 153, N-[4-[3,5-bis(trifluoromethyl)-1H-pyrazol-1-yl]phenyl]-1,2,3,4-tetrahydro-2-naphthalenecarboxamide] |  | IC50 (IL-2; Homo sapiens): 457 nM; inhibition at 100 µM (IL-2; Homo sapiens): 94%
189 to 191 °C | Cc1ccnn1-c1ccc(NC(=O)c2ccc(Cl)cc2)cc1 [Example 284, 4-Chloro-N-[4-(5-methyl-1H-pyrazol-1-yl)phenyl]benzamide] | 17% | 
163 to 164 °C | Cc1nnsc1C(=O)Nc1ccc(-n2nccc2C)cc1 [Example 285, 4-Methyl-N-[4-(5-methyl-1H-pyrazol-1-yl)phenyl]-1,2,3-thiadiazole-5-carboxamide] | 26% | 
151 to 152 °C | Cc1noc(C)c1C(=O)Nc1ccc(-n2nccc2C)cc1 [Example 286, 3,5-dimethyl-N-[4-(5-methyl-1H-pyrazol-1-yl)phenyl]-4-isoxazolecarboxamide] | 2% | 
165 to 166 °C | O=C(Nc1ccc(-n2nc(-c3ccoc3)cc2Cl)cc1)c1ccncc1F [Example 356, N-(4-(5-chloro-3-(3-furyl)-1H-pyrazol-1-yl)phenyl)-3-fluoroisonicotinamide] |  | IC50 [1]: 247 nM
